The source of these data is PubChem BioAssay AID1645864 (Buhrlage Lab, Dana-Farber Cancer Institute and Novartis …, 2021).

The source made the active and inactive calls.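 How the source made its calls: active means maximal inhibition of USP17 at or above 30% in the confirmation dose-response, a value not among the printed readouts; inactive means the rest.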 Where only a bound is given, the exact number is not on record here.

The target in this experiment is Ubiquitin carboxyl-terminal hydrolase 17-like protein 5 (Homo sapiens) (UniProt A8MUK1). The experiment is described as follows: ubiquitin-specific protease 17 DUB inhibitors, concentration-effect assay, cell-free, verification of initial screening actives (AID 1645864). Conditions: purified USP17, ubiquitin-rhodamine cleavage fluorescence, 3 h.
Sequence of Ubiquitin carboxyl-terminal hydrolase 17-like protein 5 (Homo sapiens) (A8MUK1 whole entry, looked up): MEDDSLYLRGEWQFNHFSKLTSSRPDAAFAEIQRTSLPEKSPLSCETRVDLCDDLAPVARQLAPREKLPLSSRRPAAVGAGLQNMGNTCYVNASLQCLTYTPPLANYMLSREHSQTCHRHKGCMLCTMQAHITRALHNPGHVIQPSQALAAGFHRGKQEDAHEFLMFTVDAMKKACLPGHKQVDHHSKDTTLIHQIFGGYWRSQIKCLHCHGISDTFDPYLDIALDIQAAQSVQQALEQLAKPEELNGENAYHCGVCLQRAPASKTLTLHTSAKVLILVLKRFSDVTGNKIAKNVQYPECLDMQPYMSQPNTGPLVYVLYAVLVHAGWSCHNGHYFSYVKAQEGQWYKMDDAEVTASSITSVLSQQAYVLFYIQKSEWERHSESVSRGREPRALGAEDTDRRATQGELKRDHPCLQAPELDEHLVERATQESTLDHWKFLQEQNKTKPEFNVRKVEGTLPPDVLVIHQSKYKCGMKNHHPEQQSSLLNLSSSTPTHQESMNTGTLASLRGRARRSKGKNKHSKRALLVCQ
Regarding `CCOC(=O)c1cc2c(ccn2C)n1CC(=O)N1CCC(C)CC1`, the IC50 (usually the concentration needed to halve the response being measured) is > 50 µM (inactive).

For the molecule `NC(=O)Cn1c(=O)n(Cc2ccc(C(=O)NC3CCCC3)cc2)c(=O)c2ccccc21`, the IC50 was > 50 µM (inactive). In the case of `O=C(c1ccnn1-c1ccc2ccc(-c3ccncc3)cn12)N1CCCC1`, the IC50 is > 50 µM (inactive). Consider `O=C(COc1ccc(F)cc1)Nc1cc(F)c2nc(N3CCOCC3)ccc2c1`, for which the half-maximal inhibitory concentration (IC50) is 4.34 µM.

In the case of `CCN(CC)c1nc(F)c2c(c1F)S(=O)(=O)CCN2Cc1ccccc1`, the IC50 was > 50 µM (inactive).

Consider `COC(=O)c1cc(C#N)c(NCc2ccccc2)nc1C`, for which the IC50 is 13.4 µM. Turning to `O=C1COc2ccccc2N1Cc1noc(-c2ccccc2)n1`, the IC50 was > 50 µM (inactive). Under `CCCC(O)CCCCCCCc1cc(O)cc(O)c1C(=O)OC(CCC)CCCCCCCc1cc(O)cc(O)c1` (configuration not stated) stands 28.6 µM. Consider `O=C(Nc1ccc(SCc2nnc(-c3ccccc3)o2)cc1)C1CC1`, for which the IC50 was > 50 µM (inactive). `O=C(O)Cc1ccc(Nc2nc3ccccc3n3nnnc23)cc1`: the IC50 is > 50 µM (inactive). In the case of `O=C1CC(O)C(O)c2cccc(O)c21` (configuration not stated), the IC50 is 9.86 µM. Under `CN(C)S(=O)(=O)N1CCCC2(C1)Nc1cccnc1NC2=NC1CCCC1` (configuration not stated) stands > 50 µM (inactive). In the case of `NS(=O)(=O)c1ccc(Cl)c(C(=O)OCc2csc(Nc3ccccc3)n2)c1`, the IC50 was > 50 µM (inactive). With `CCOc1cc(N2CCOCC2)c(OCC)cc1NC(=O)c1cc(-c2ccncc2)nc2ccccc12`, the IC50 was 10.1 µM. Take `COc1cc2c(oc(=O)c3cc(C)cc(OC)c32)c2c([C@@H]3OC(C)[C@@H](O)[C@@](C)(O)C3O)ccc(O)c12` (some centres not stated): the half-maximal inhibitory concentration (IC50) was 24.4 µM. Under `Cc1cc(NC(=O)COc2ccc3oc4ccccc4c3c2)no1` stands 31.4 µM; under `CCOC(=O)c1sc2nc(CC(=O)OC)nc(NCc3ccco3)c2c1C`, > 50 µM (inactive). Consider `O=C(Cn1cnc(-c2noc(-c3ccncc3)n2)c1)N1CCN(c2ccccc2F)CC1`, for which the IC50 is > 50 µM (inactive). For `CCOc1ccc2c(c1)c(=O)c(C(=O)c1ccccc1)cn2CC(=O)Nc1ccccc1`, the IC50 was 5.29 µM.

As for `Cc1c(CC(=O)Nc2nn[nH]n2)c(=O)oc2cc3c(cc12)CCC1(CCCCC1)O3`, the IC50 is > 50 µM (inactive). Take `CC1=C(c2ccc(F)cc2)S(=O)(=O)NC1=NCC(=O)Nc1ccc(F)cc1`: the concentration for half-maximal inhibition (IC50) is 40.6 µM. As for `COc1cc(NC(=O)c2ccc3c(c2)OCO3)ccc1-c1cc2ccccc2oc1=O`, the half-maximal inhibitory concentration (IC50) is 0.678 µM. For `Cc1ccc(NC(=O)/C=C/c2cccc(C(F)(F)F)c2)c(O)c1`, the half-maximal inhibitory concentration (IC50) was 8.3 µM. For the molecule `CN(C)C1CCN(C(=O)c2cc(-c3ccn(-c4ccccc4)n3)n3ccccc23)CC1`, the IC50 is > 50 µM (inactive).

With `COCCCn1c(C(=O)Nc2ccccc2OC)cc2c(=O)n3ccccc3nc21`, the IC50 is 12.4 µM. `Fc1ccc(Oc2nc(CN3CCOCC3)nc3sc4c(c23)CCCC4)c(Cl)c1`: the IC50 is > 50 µM (inactive). In the case of `O=C(NCCCN1CCc2ccccc2C1)c1cc2c(s1)CS(=O)(=O)C2`, the IC50 was > 5 µM (inactive). For `COc1ccccc1NC(=O)CSC1=NC2(CCCCC2)Nc2ccccc21`, the IC50 was > 50 µM (inactive). For the molecule `Cc1ccc2[nH]c(=O)c(CN(CC3COCCO3)S(=O)(=O)c3ccc(F)cc3)cc2c1` (configuration not stated), the IC50 is 4.16 µM. Turning to `Cc1ccc(CSC2=NS(=O)(=O)c3ccccc3N2)cc1`, the IC50 was > 50 µM (inactive). As to `CCC(=O)Nc1cccnc1-c1ccc(C(=O)Nc2cccc(OC)c2)cc1`, the IC50 is > 50 µM (inactive). Under `CCn1c(COc2cccc(C(F)(F)F)c2)nnc1SCc1ccc(Cl)cc1` stands 43.4 µM; under `Cc1ccccc1NC(=O)CNc1nc(Nc2ccccc2)nc(Nc2ccccc2)n1`, 21.7 µM; under `COc1cccc(-n2ccc(=O)c(-c3nc(-c4ccccc4Cl)no3)n2)c1`, > 50 µM (inactive).

`CC(C)N1C[C@@H]2C[C@H](NS(=O)(=O)c3cccc(C#N)c3)CN2Cc2ccccc21`: the IC50 is > 50 µM (inactive). Consider `O=C(Cn1cnc2c(cnn2-c2ccc(Cl)cc2)c1=O)NCc1ccccc1Cl`, for which the concentration for half-maximal inhibition (IC50) was 3.43 µM. On to `COc1cccc(-n2c(=O)[nH]c3c(C(N)=O)nc(-c4ccc(OCc5ccccc5)cc4)nc32)c1`, for which the IC50 was > 50 µM (inactive).

Regarding `COc1cccc(NC(=O)c2ccc(-c3csc(C)n3)cc2)c1`, the IC50 was > 50 µM (inactive). With `CCn1cnc2ccc(C(=O)NC3CC3)cc2c1=O`, the IC50 is > 50 µM (inactive).

As to `CN(Cc1ccccc1)S(=O)(=O)c1ccc(S(=O)(=O)N2CCN(C(=O)c3cccnc3)CC2)cc1`, the IC50 is 44 µM. `O=c1c2ccccc2oc2nc(-c3cccs3)n(-c3ccccc3)c(=O)c12`: the IC50 was 2.67 µM. Take `Cn1c2ccccc2c(=O)c2c(=O)n(Cc3ccccc3)c(-c3ccccc3F)nc21`: the half-maximal inhibitory concentration (IC50) was 0.127 µM.

As to `CCCCCn1c(Sc2ccc(C)cc2)nc2c1c(=O)[nH]c(=O)n2C`, the IC50 was 16.3 µM. On to `CCN(Cc1ccccc1)S(=O)(=O)c1ccc(C(=O)Nc2ccc3c(c2)OCCO3)cc1`, for which the IC50 is > 50 µM (inactive). With `Cc1cnc(CN2CCCC(c3ccc4cn[nH]c4n3)C2)cn1` (configuration not stated) the figure was > 50 µM (inactive); with `Nc1c(C(=O)NCc2ccc3c(c2)OCO3)nnn1Cc1ccc(Br)cc1F`, 2.8 µM; with `COc1ccc(-n2c(=O)c(CCC(=O)O)nc3ccccc32)cc1`, > 50 µM (inactive). In the case of `CCc1nc(SCC(=O)Nc2ccccc2Cl)c2oc3ccccc3c2n1`, the 50% inhibitory concentration (IC50) is 0.0527 µM. As to `C=C[C@]1(C)C=C2C(=O)[C@]3(O)OC(=O)[C@@]4(CCCC(C)(C)[C@H]34)[C@@]2(O)CC1`, the 50% inhibitory concentration (IC50) is 29.7 µM.

`O=S(=O)(c1cccc(F)c1)N1CCN(c2nnnn2-c2ccccc2)CC1`: the 50% inhibitory concentration (IC50) is 40.3 µM. Take `COc1cccc(C(=O)Oc2ccc3c(=O)c(-c4ccc(OC)c(OC)c4)coc3c2)c1`: the 50% inhibitory concentration (IC50) is 0.167 µM. `Nc1ccccc1SCc1noc(-c2cccs2)n1`: the IC50 was > 50 µM (inactive). `CCOC(=O)C1C(c2ccc(Br)cc2)C2(C(=O)c3ccccc3C2=O)C2C=Cc3ccccc3N12` (configuration not stated): the IC50 was > 50 µM (inactive). `CCOc1ccc(N2C(=O)c3ccccc3C2C(=O)NCc2ccccc2OC)cc1` (configuration not stated): the IC50 was 45.8 µM.

In the case of `O=C(COc1ccc(F)cc1)Nc1cnc(-c2ccc(Cl)cc2)nc1`, the IC50 was 24 µM. As to `N#Cc1ccccc1OCc1csc(-c2ccccc2)n1`, the IC50 is > 50 µM (inactive).

On to `Cc1ccc(CNC(=O)c2cnc3ccccc3n2)cc1`, for which the IC50 is > 50 µM (inactive). Regarding `FC(F)(F)c1ccccc1CCN1CCc2nc3ccc(Cl)cc3cc2C1`, the IC50 is > 50 µM (inactive). As for `Cc1ccc(C(=O)Nc2ccc(S(=O)(=O)N3CCCC3)cc2)cc1Br`, the IC50 was > 50 µM (inactive). `COc1cccc(-c2nc(C(N)=O)c3[nH]c(=O)n(-c4cccc(Cl)c4)c3n2)c1OC`: the IC50 is > 50 µM (inactive). For the molecule `O=C(NC1CCS(=O)(=O)C1)c1ccc(N2CCC(Cc3ccccc3)CC2)nn1` (configuration not stated), the IC50 was > 50 µM (inactive). On to `O=C(c1cc2ccccc2o1)N1CC=C(c2ccccc2)CC1`, for which the IC50 is > 50 µM (inactive). Under `COc1cc(C)cc2c1C(=O)c1c(cc(O)c(Cl)c1O)C2=O` stands 1.57 µM; under `c1ccc(-n2nnc(-c3noc(-c4cccnc4)n3)c2-c2ccncc2)cc1`, 27.9 µM.

As to `O=c1ncn(Cc2ccc3c(c2)OCO3)cc1-c1ncc(C(F)(F)F)cc1Cl`, the half-maximal inhibitory concentration (IC50) was 43.9 µM. On to `O=C(Nc1ccc(Cl)cc1)Nc1cccn2ncnc12`, for which the IC50 is 21.7 µM. For the molecule `Cc1ccccc1Cn1ccc(NC(=O)c2noc(C)c2[N+](=O)[O-])n1`, the IC50 was > 50 µM (inactive). Under `Cc1ccc(NC(=O)Cn2cc(S(=O)(=O)N3CCCC3)ccc2=O)cc1` stands 19.5 µM; under `O=C(COc1ccc2oc3c(c2c1)CCCC3)Nc1ccccn1`, 25.4 µM; under `Cc1ccc(C(=O)Nc2ccc3nccnc3c2)cc1`, > 50 µM (inactive). Take `COc1cccc(CNC(=O)c2ccc3c(c2)NC(=O)C2CCCN32)c1OC` (configuration not stated): the IC50 is > 50 µM (inactive). In the case of `CCCN1CCN(C(=O)c2cc(NC(=O)C3CCC3)cc3nc(C)ccc23)CC1`, the IC50 is > 50 µM (inactive).

With `COc1ccc2nc(Nc3ncc4c(n3)CCCC4=O)nc(C)c2c1`, the IC50 was > 5 µM (inactive). With `O=C(Cc1cc(-c2ccc(F)cc2)on1)NCc1ccccc1`, the IC50 is 15.9 µM.

For `O=[N+]([O-])c1cccc(CSc2nnc(/C=C/c3ccccc3)o2)c1`, the IC50 was > 50 µM (inactive). For `O=C(NCc1ccc(-c2nc3cnccc3o2)cc1)c1ccccc1Br`, the IC50 is 38.6 µM.

With `CC(=O)O[C@H]1[C@]2(O)C[C@]34SS[C@](CO)(C(=O)N3[C@@H]2C[C@@]12O[C@@H](C)C(C)(C)C2=O)N(C)C4=O`, the IC50 is > 50 µM (inactive).

Take `CCCCCC(O)c1c(O)cc2c(c1O)C(=O)c1c(O)cc(O)cc1C2=O` (configuration not stated): the IC50 is > 50 µM (inactive).

As to `COc1c(Cl)ccc2c(=O)c3c(O)c4c5c(c3oc12)OCO[C@H]5[C@@H](OC)c1cc2c(c(O)c1-4)C(=O)N(C)[C@H](OC)[C@@H]2O`, the IC50 is > 50 µM (inactive). With `CC(NC(=O)c1ccccc1)c1nc2ccccc2n1CC(=O)Nc1ccc2c(c1)OCO2` (configuration not stated) the figure was 2.25 µM; with `Cc1ccc(-n2c(-c3ccccc3)cn3c4c(=O)[nH]c(=O)n(C)c4nc23)cc1Cl`, 0.226 µM; with `Cc1ccc(CNC(=O)c2ccc(N3C(=O)[C@@H]4Cc5ccccc5CN4C3=O)cc2)cc1`, 34.2 µM. With `O=C(c1ccsc1)N1CCC2(C1)Nc1cccnc1NC2=NC1CCCC1` (configuration not stated), the IC50 is > 50 µM (inactive). With `CCc1ccc(NC(=O)CN=C2NS(=O)(=O)C(c3ccc(CC)cc3)=C2C)cc1`, the IC50 was 32.5 µM.

As for `Cc1ccc(-c2nnc(-n3ncc(C#N)c3N)c3ccccc23)cc1C`, the IC50 was > 50 µM (inactive). As for `COc1ccc(C(=O)CSc2ccc3nnc(CCNC(=O)c4ccc(OC)cc4)n3n2)cc1`, the IC50 is > 50 µM (inactive).

Take `O=S(=O)(c1cccc2cccnc12)N(CCc1ccccc1)C1CCN(CCc2ccc(Cl)cc2)CC1`: the IC50 was > 50 µM (inactive).
